Measurements taken from patent US3951952A, “Broad spectrum antibiotics” (Pfizer Inc., priority 1973, dated 1976).
In brackets after ≈: the same amount, converted by molar mass. Read-outs that look alike come from different tables or passages of the source.

How the values were obtained:
Ps. aeruginosa 52A104 = assay: In vitro MIC, Ps. aeruginosa 52A104; assay type: cell-based
Excerpt: (§1) The in vitro activity of the herein described compounds renders them useful for topical application in the form of ointments, creams and the like, or for sterilization purposes, e.g., sick-room utensils.
(§2) Table I compares the in vitro profile of 6-[D-2-phenyl-2-(amidinopropionamido)acetamido]penicillanic acid (PAP) with ampicillin (AMP) and carbenicillin (CAR).

E. coli 51A002 = assay: In vitro MIC, E. coli 51A002; assay type: cell-based; conditions: Escherichia coli, Table I, nutrient broth
Excerpt: as §1, §2

E. coli 51A266 [1] = assay: In vitro MIC, E. coli 51A266; assay type: cell-based
Excerpt: as §1, §2

Ps. aeruginosa 52A173 = assay: In vitro MIC, Ps. aeruginosa 52A173; assay type: cell-based; conditions: Pseudomonas aeruginosa, Table I, nutrient broth
Excerpt: as §1, §2

P. vulgaris 57A059 = assay: In vitro MIC, P. vulgaris 57A059; assay type: cell-based; conditions: Proteus vulgaris
Excerpt: as §1, §2

Ps. aeruginosa 52A490 = assay: In vitro MIC, Ps. aeruginosa 52A490; assay type: cell-based
Excerpt: as §1, §2

A. aerogenes 55A004 = assay: In vitro MIC, A. aerogenes 55A004; assay type: cell-based; conditions: Klebsiella aerogenes, Table I, nutrient broth
Excerpt: as §1, §2

Ser. marcescens 63A001 = assay: In vitro MIC, Ser. marcescens 63A001; assay type: cell-based
Excerpt: as §1, §2

E. coli 51A266 [2] = assay: In vivo protection of mice against experimental E. coli 51A266 infection; conditions: doses 0.5, 4 and 24 hours; for % Protection (% survivors): Table II; for % Survivors: Table IV
Description: Table II presents the in vivo comparison data for the three compounds contained in Table I aganst several experimental infections in mice.
The values (% survivors) are obtained under standard conditions known to those skilled in the art. For the E. coli organism, the test compound is administered to the infected mice by a multiple dosing regimen in which the first dose is given 0.5 hour after inoculation and is repeated 4 and 24 hours later.
Table IV presents in vivo comparison data for the four compounds in Table III against E. coli infections in mice.
The values, reported as % survivors, are obtained under standard conditions familiar to those skilled in the art. The test compound is administered to the infected mice by a multiple dosing regimen in which the first dose is given 0.5 hour after inoculation and is repeated 4 and 24 hours later.

A. aerogenes 55A002 = assay: In vitro MIC, A. aerogenes 55A002; assay type: cell-based; conditions: Klebsiella aerogenes, Table I, nutrient broth
Excerpt: as §1, §2

S. aureus = assay: In vitro MIC, S. aureus; assay type: cell-based; conditions: Staphylococcus aureus, Table I, nutrient broth
Excerpt: as §1, §2

Kleb. pneumoniae 53A015 = assay: In vitro MIC, Kleb. pneumoniae 53A015; assay type: cell-based; conditions: Klebsiella pneumoniae, Table I, nutrient broth
Excerpt: as §1, §2

Kleb. pneumoniae 53A009 = assay: In vitro MIC, Kleb. pneumoniae 53A009; assay type: cell-based
Excerpt: as §1, §2

gram-negative bacteria = conditions: in words, U.S. Pat. No. 3,142,673, cited from earlier work
A. aerogenes = assay: In vitro MIC, A. aerogenes (strain not given); assay type: cell-based; conditions: Table III
Excerpt: as §1, §2

P. mirabilis 57C015 = assay: In vitro MIC, P. mirabilis 57C015; assay type: cell-based; conditions: Table III
Excerpt: as §1, §2

S. aureus 01A005 = assay: In vitro MIC, S. aureus 01A005; assay type: cell-based; conditions: Table III
Excerpt: as §1, §2

[3] = Pseudomonas aeruginosa, Table I, nutrient broth, read-out: MIC
[4] = Table I, P. vulgaris 57A059, nutrient broth, read-out: MIC
[5] = Serratia marcescens, Table I, nutrient broth, read-out: MIC
[6] = Klebsiella pneumoniae, Table I, nutrient broth, read-out: MIC
[7] = Escherichia coli, Table I, E. coli 51A266, nutrient broth, read-out: MIC

Compound | MIC (Ps. aeruginosa 52A104; [3]) | MIC (E. coli 51A002) | MIC (Ps. aeruginosa 52A173) | MIC (Ps. aeruginosa 52A490; [3]) | MIC (Ser. marcescens 63A001; [5]) | MIC (A. aerogenes 55A002) | MIC (Ps. aeruginosa 52A104; Table III) | MIC (E. coli 51A266 [1]; Table III, E. coli 51A266) | MIC (A. aerogenes) | MIC (Ps. aeruginosa 52A490; Table III) | MIC (Ser. marcescens 63A001; Table III) | % Survivors (E. coli 51A266 [2]; PO, 25 mg./kg.) | % Survivors (E. coli 51A266 [2]; PO, 50 mg./kg.) | % Survivors (E. coli 51A266 [2]; PO, 200 mg./kg.) | % Survivors (E. coli 51A266 [2]; SC, 25 mg./kg.) | % Survivors (E. coli 51A266 [2]; SC, 50 mg./kg.) | % Survivors (E. coli 51A266 [2]; SC, 200 mg./kg.) | MIC (P. mirabilis 57C015) | MIC (Kleb. pneumoniae 53A009; Table III) | MIC (S. aureus 01A005) | also measured
CC1(C)S[C@@H]2[C@H](NC(=O)[C@H](N)c3ccccc3)C(=O)N2[C@H]1C(=O)O [AMP, ampicillin, reference compound] | 200 µg/mL (≈ 572 µM) | 200 µg/mL (≈ 572 µM) | 38 µg/mL (≈ 109 µM) | 0.78 µg/mL (≈ 2.23 µM) | 200 µg/mL (≈ 572 µM) | 100 µg/mL (≈ 286 µM) | – | – | – | – | – | – | – | – | – | – | – | – | – | – | MIC (E. coli 51A266 [1]; Escherichia coli, 51A266): 3.12 µg/mL (≈ 8.93 µM); MIC (P. vulgaris 57A059; [4]): 6 µg/mL (≈ 17.2 µM); MIC (A. aerogenes 55A004): 5 µg/mL (≈ 14.3 µM); % Protection (% survivors) (E. coli 51A266 [2]; PO, 50 mg./kg.): 80%; % Protection (% survivors) (E. coli 51A266 [2]; PO, 200 mg./kg.): 90%; % Protection (% survivors) (E. coli 51A266 [2]; SC, 50 mg./kg.): 80%; % Protection (% survivors) (E. coli 51A266 [2]; SC, 200 mg./kg.): 90%; MIC (S. aureus): 0.09 µg/mL (≈ 0.258 µM); MIC (Kleb. pneumoniae 53A015): 250 µg/mL (≈ 715 µM); MIC (Kleb. pneumoniae 53A009; [6]): 100 µg/mL (≈ 286 µM)
CC1(C)S[C@@H]2[C@H](NC(=O)C(C(=O)O)c3ccccc3)C(=O)N2[C@H]1C(=O)O (stereo partly drawn) [CAR, carbenicillin] | 50 µg/mL (≈ 132 µM) | 200 µg/mL (≈ 529 µM) | 75 µg/mL (≈ 198 µM) | 0.6 µg/mL (≈ 1.59 µM) | 25 µg/mL (≈ 66.1 µM) | 25 µg/mL (≈ 66.1 µM) | – | – | – | – | – | – | – | – | – | – | – | – | – | – | MIC (E. coli 51A266 [1]; [7]): 3.12 µg/mL (≈ 8.25 µM); MIC (P. vulgaris 57A059; 57A059): 12.5 µg/mL (≈ 33 µM); utility via oral administration (gram-negative bacteria; oral): limited utility via oral administration; efficacy against gram-negative bacteria (gram-negative bacteria; parenteral route): greater efficacy against gram-negative bacteria via the parenteral route of administration; MIC (A. aerogenes 55A004): 50 µg/mL (≈ 132 µM); MIC (S. aureus): 1.56 µg/mL (≈ 4.12 µM); MIC (Kleb. pneumoniae 53A015): > 200 µg/mL; MIC (Kleb. pneumoniae 53A009; [6]): 200 µg/mL (≈ 529 µM)
CC1(C)S[C@@H]2[C@H](NC(=O)[C@H](NC(=O)CCC(=N)N)c3ccccc3)C(=O)N2[C@H]1C(=O)O [PAP, 6-[D-2-phenyl-2-(amidinopropionamido)acetamido]penicillanic acid] | 12.5 µg/mL (≈ 27.9 µM) | 200 µg/mL (≈ 447 µM) | 0.78 µg/mL (≈ 1.74 µM) | 1.56 µg/mL (≈ 3.49 µM) | 3.12 µg/mL (≈ 6.97 µM) | 100 µg/mL (≈ 223 µM) | – | – | – | – | – | – | – | – | – | – | – | – | – | – | MIC (E. coli 51A266 [1]; [7]): 1.56 µg/mL (≈ 3.49 µM); MIC (P. vulgaris 57A059; [4]): 1.56 µg/mL (≈ 3.49 µM); MIC (Kleb. pneumoniae 53A015): > 200 µg/mL; MIC (Kleb. pneumoniae 53A009; [6]): 25 µg/mL (≈ 55.9 µM)
CC1(C)S[C@@H]2[C@H](NC(=O)C(NC(=O)CNC(=N)c3ccc(Br)cc3)c3ccccc3)C(=O)N2[C@H]1C(=O)O (stereo partly drawn) [X = Br] | – | – | – | – | – | – | 25 µg/mL (≈ 42.5 µM) | 0.39 µg/mL (≈ 0.663 µM) | 3.12 µg/mL (≈ 5.3 µM) | 6.25 µg/mL (≈ 10.6 µM) | 6.25 µg/mL (≈ 10.6 µM) | 10% | 0% | 0% | 50% | 60% | 90% | 3.12 µg/mL (≈ 5.3 µM) | 12.5 µg/mL (≈ 21.2 µM) | 0.39 µg/mL (≈ 0.663 µM) | –
CC1(C)S[C@@H]2[C@H](NC(=O)C(NC(=O)CNC(=N)c3ccc(Cl)cc3)c3ccccc3)C(=O)N2[C@H]1C(=O)O (stereo partly drawn) [X = Cl] | – | – | – | – | – | – | 25 µg/mL (≈ 46 µM) | 0.78 µg/mL (≈ 1.43 µM) | 3.12 µg/mL (≈ 5.73 µM) | 12.5 µg/mL (≈ 23 µM) | 6.25 µg/mL (≈ 11.5 µM) | 0% | 0% | 0% | 50% | 60% | 70% | 3.12 µg/mL (≈ 5.73 µM) | 12.5 µg/mL (≈ 23 µM) | 0.39 µg/mL (≈ 0.717 µM) | –
CC1(C)S[C@@H]2[C@H](NC(=O)C(NC(=O)CNC(=N)c3ccc(F)cc3)c3ccccc3)C(=O)N2[C@H]1C(=O)O (stereo partly drawn) [X = F] | – | – | – | – | – | – | 12.5 µg/mL (≈ 23.7 µM) | 1.56 µg/mL (≈ 2.96 µM) | 25 µg/mL (≈ 47.4 µM) | 3.12 µg/mL (≈ 5.91 µM) | 6.25 µg/mL (≈ 11.8 µM) | 10% | 0% | 10% | 50% | 70% | 90% | 3.12 µg/mL (≈ 5.91 µM) | 25 µg/mL (≈ 47.4 µM) | 0.39 µg/mL (≈ 0.739 µM) | –
CC1(C)S[C@@H]2[C@H](NC(=O)C(NC(=O)CNC(=N)c3ccccc3)c3ccccc3)C(=O)N2[C@H]1C(=O)O (stereo partly drawn) [X = H] | – | – | – | – | – | – | 25 µg/mL (≈ 49.1 µM) | 12.5 µg/mL (≈ 24.5 µM) | 25 µg/mL (≈ 49.1 µM) | 12.5 µg/mL (≈ 24.5 µM) | 12.5 µg/mL (≈ 24.5 µM) | 0% | 0% | 10% | 10% | 70% | 90% | 12.5 µg/mL (≈ 24.5 µM) | 100 µg/mL (≈ 196 µM) | 0.78 µg/mL (≈ 1.53 µM) | –
